# Laboratory results as given in US7888474B2, “HDM2 polypeptides” (Schering Corporation, priority 2007, dated 2011).
# Assays:
# [1] = biological target: T1, HDM2 (Homo sapiens, UniProt Q00987); test: TdF assay (thermal melting with Sypro Orange); assay type: binding; conditions: 6 uM HDM2, 10 mM HEPES pH 7.4, 150 mM NaCl, 1 mM DTT, 10 and 20 uM compound
# [2] = biological target: T1, HDM2; test: Fluorescent polarization assay (FAM-labeled p53 peptide ligand competition); assay type: binding; conditions: 10 nM HDM2 protein, 1 nM FAM-labeled p53 peptide ligand, PBS buffer; for Ki: non-linear regression
# T1 sequence (Q00987 whole entry): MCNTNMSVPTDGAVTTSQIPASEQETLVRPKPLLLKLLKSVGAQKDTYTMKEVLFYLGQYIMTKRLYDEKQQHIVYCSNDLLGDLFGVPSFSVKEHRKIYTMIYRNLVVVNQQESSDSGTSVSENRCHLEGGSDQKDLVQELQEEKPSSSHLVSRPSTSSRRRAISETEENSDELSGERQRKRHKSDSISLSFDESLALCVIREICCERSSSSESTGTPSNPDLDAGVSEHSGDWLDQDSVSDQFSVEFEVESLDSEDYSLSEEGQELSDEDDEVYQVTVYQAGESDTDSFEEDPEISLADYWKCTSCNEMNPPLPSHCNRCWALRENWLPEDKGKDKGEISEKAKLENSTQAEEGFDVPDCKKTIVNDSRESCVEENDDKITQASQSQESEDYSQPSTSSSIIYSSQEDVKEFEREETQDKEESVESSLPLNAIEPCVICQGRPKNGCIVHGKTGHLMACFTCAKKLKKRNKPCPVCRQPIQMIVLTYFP
Kd [1],IC50 [2],Ki [2],SMILES
< 2 µM,< 5 µM,< 2 µM,O=C(c1cnccc1C(F)(F)F)N1CCCC(Oc2ccc(C(F)(F)F)cc2)(C(=O)N2CCN(c3ccccn3)CC2)C1 (stereo not drawn) [Compound 1]
< 2 µM,< 5 µM,< 2 µM,COCCOc1ccccc1N1CCN(C(=O)[C@]2(Oc3ccc(C(F)(F)F)cc3)CCCN(C(=O)c3cnccc3C(F)(F)F)[C@@H]2C(O)C(C)O)CC1 (stereo partly drawn) [Compound 4]
